Values quoted from earlier work in PMC5368910 (BMC Pharmacology & Toxicology, 2017).

What was measured:
C. difficile = test system: C. difficile; set-up: method as in PMID 22183166, PMID 22391542; conditions: in vitro, C. difficile isolates; cited from earlier work
[1] = test system: Clostridium difficile-associated diarrhea (CDAD); conditions: stated for vancomycin and metronidazole treatments together; cited from earlier work
Excerpt: Despite having a clinical response rate of ~73 to 85%, vancomycin and metronidazole treatments are associated with recurrent CDAD in up to 45% of patients. Aggressive vancomycin and metronidazole treatment is also associated with disruption of the intestinal microbiota and can promote colonization by vancomycin-resistant enterococci, highlighting the need for novel treatment options. An ideal agent for the treatment of CDAD should be associated with low levels of systemic absorption, resulting in high concentrations of the drug in the colon, combined with a narrow spect ...

SMILES: CN[C@H](CC(C)C)C(=O)N[C@H]1C(=O)N[C@@H](CC(N)=O)C(=O)N[C@H]2C(=O)N[C@H]3C(=O)N[C@H](C(=O)N[C@H](C(=O)O)c4cc(O)cc(O)c4-c4cc3ccc4O)[C@H](O)c3ccc(c(Cl)c3)Oc3cc2cc(c3O[C@@H]2O[C@H](CO)[C@@H](O)[C@H](O)[C@H]2O[C@H]2C[C@](C)(N)[C@H](O)[C@H](C)O2)Oc2ccc(cc2Cl)[C@H]1O [vancomycin, reference compound]
- minimum inhibitory concentration at which 90% of the isolates were inhibited [MIC90] (C. difficile): 2.0 µg/mL
- recurrent CDAD, share of patients [1]: up to 45%
